Results published in paper PMC3517155 (ChemMedChem, 2009).

Columns and labels:
[1] = molecular target: T1, DAT (Rattus norvegicus, UniProt P23977); test: DAT binding, inhibition of [3H]WIN 35,428 binding in rat striatum
[2] = molecular target: T1, DAT; test: DAT uptake, inhibition of [3H]DA uptake in rat striatum; format: biochemical; details: for Selectivity ratio DAT uptake/DAT binding: ratio of Ki values
[3] = molecular target: SERT (Rattus norvegicus, UniProt P31652); test: SERT uptake, inhibition of [3H]5-HT uptake in rat cerebral cortex; format: biochemical; details: for Selectivity ratio SERT uptake/DAT uptake: ratio of Ki values
[4] = tested on: NET; test: NET uptake, inhibition of [3H]NE uptake in rat hippocampus; format: biochemical; details: ratio of Ki values
[5] = tested on: Swiss-Webster mice; test: Locomotor activity in mice; details: i.p., 1 mg/kg
[6] = tested on: rats trained to discriminate 10 mg/kg cocaine from saline; test: Cocaine drug discrimination in rats; details: at 10 and 30 mg/kg i.p.

Chain of SERT (P31652 whole entry): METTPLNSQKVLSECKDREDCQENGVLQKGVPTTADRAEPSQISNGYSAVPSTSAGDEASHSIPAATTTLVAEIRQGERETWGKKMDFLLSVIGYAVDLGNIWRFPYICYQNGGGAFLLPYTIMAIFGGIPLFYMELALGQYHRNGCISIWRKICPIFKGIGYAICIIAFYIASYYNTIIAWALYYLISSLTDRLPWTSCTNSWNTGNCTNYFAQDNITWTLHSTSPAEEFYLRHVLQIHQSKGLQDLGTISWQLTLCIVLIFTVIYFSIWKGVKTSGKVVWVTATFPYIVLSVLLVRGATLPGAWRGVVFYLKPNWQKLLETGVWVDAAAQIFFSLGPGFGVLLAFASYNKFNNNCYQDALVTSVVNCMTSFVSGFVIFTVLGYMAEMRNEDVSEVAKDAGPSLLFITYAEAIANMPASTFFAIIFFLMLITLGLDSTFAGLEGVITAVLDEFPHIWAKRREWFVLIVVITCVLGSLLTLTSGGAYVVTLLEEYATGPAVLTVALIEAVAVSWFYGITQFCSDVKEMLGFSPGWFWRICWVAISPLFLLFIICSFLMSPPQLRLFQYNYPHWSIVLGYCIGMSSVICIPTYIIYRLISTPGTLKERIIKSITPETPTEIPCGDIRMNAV
T1 sequence (P23977 whole entry): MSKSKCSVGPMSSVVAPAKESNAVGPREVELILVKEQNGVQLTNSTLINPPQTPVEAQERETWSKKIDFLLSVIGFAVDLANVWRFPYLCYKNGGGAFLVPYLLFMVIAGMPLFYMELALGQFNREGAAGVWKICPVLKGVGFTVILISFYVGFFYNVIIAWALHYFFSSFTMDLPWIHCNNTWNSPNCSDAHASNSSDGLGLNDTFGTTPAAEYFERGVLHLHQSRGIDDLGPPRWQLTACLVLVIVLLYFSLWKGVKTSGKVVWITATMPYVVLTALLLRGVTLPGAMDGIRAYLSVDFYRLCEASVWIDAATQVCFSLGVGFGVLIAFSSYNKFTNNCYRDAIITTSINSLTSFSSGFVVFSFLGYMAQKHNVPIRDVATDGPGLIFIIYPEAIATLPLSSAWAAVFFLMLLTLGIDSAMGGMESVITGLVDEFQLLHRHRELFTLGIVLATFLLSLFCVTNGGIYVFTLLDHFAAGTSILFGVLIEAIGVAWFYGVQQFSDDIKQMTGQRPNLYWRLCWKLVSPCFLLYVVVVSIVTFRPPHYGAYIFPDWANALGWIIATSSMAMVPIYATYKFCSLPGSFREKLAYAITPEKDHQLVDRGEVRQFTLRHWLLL

SMILES | Ki [1] [nM] | Ki [2] [nM] | Selectivity ratio DAT uptake/DAT binding [2] | Selectivity ratio SERT uptake/DAT uptake [3] | Selectivity ratio NET uptake/DAT uptake [4] | Ki [3] [nM] | time of peak effect on distance traveled [5] [min] | percentage of cocaine-lever responding [6] [%]
O[C@@H]1CN(C[C@H](O)c2ccccc2)CC[C@H]1CCOC(c1ccccc1)c1ccccc1 [9a′, (3S,4S)-4-(2-(Benzhydryloxy)ethyl)-1-((R)-2-hydroxy-2-phenylethyl)piperidin-3-ol] | 40.1 ± 19.2 | 18.4 ± 9.5 | 0.46 | 23 | 1.5 | – | – | –
O[C@H](CN1CC[C@@H](CCOC(c2ccccc2)c2ccccc2)[C@H](O)C1)c1ccccc1 [9b′, (3S,4S)-4-(2-(Benzhydryloxy)ethyl)-1-((S)-2-hydroxy-2-phenylethyl)piperidin-3-ol] | 0.486 ± 0.065 | 1.06 ± 0.42 | 2.2 | 220 | 110 | 231 ± 49 | – | –
O[C@@H]1CN(C[C@H](O)c2ccc(F)cc2)CC[C@H]1CCOC(c1ccccc1)c1ccccc1 [9c′, (3S,4S)-4-(2-(benzhydryloxy)ethyl)-1-((R)-2-(4-fluorophenyl)-2-hydroxyethyl)piperidin-3-ol] | – | 2.44 ± 0.37 | – | 160 | 10 | 402 ± 67 | – | –
O[C@H](CN1CC[C@@H](CCOC(c2ccccc2)c2ccccc2)[C@H](O)C1)c1ccc(F)cc1 [9d′, (3S,4S)-4-(2-(Benzhydryloxy)ethyl)-1-((S)-2-(4-fluorophenyl)-2-hydroxyethyl)piperidin-3-ol] | 2.59 ± 0.66 | 2.97 ± 0.72 | 1.2 | 600 | 7.0 | 1790 | – | –
O[C@@H](CN1CC[C@H](CCOC(c2ccccc2)c2ccccc2)[C@@H](O)C1)c1ccccc1 [Compound 9a, (3R,4R)-4-(2-(Benzhydryloxy)ethyl)-1-((R)-2-hydroxy-2-phenylethyl)-piperidin-3-ol] | 6.76 ± 1.75 | 6.23 ± 2.38 | 0.92 | 73 | 1.2 | 456 ± 102 | 20 to 30 | –
O[C@H](CN1CC[C@H](CCOC(c2ccccc2)c2ccccc2)[C@@H](O)C1)c1ccccc1 [Compound 9b, (3R,4R)-4-(2-(Benzhydryloxy)ethyl)-1-((S)-2-hydroxy-2-phenylethyl)piperidin-3-ol] | 2.29 ± 0.85 | 4.69 ± 2.06 | 2.0 | 33 | 17 | 155 ± 26 | – | –
O[C@@H](CN1CC[C@H](CCOC(c2ccccc2)c2ccccc2)[C@@H](O)C1)c1ccc(F)cc1 [Compound 9c, (3R,4R)-4-(2-(Benzhydryloxy)ethyl)-1-((R)-2-(4-fluorophenyl)-2-hydroxyethyl)piperidin-3-ol] | 2.17 ± 0.67 | 4.04 ± 1.22 | 2.0 | 260 | 5.4 | 1050 | – | –
O[C@H](CN1CC[C@H](CCOC(c2ccccc2)c2ccccc2)[C@@H](O)C1)c1ccc(F)cc1 [Compound 9d, (3R,4R)-4-(2-(Benzhydryloxy)ethyl)-1-((S)-2-(4-fluorophenyl)-2-hydroxyethyl)piperidin-3-ol] | 2.65 ± 0.99 | 1.55 ± 0.27 | 0.59 | 170 | 9.1 | 259 ± 36 | – | –
COC(=O)[C@H]1[C@@H](OC(=O)c2ccccc2)C[C@@H]2CC[C@H]1N2C [cocaine] | – | – | – | – | – | – | – | ≥ 80
